Experimental findings from US20180344725A1, “QUINOLONE CHALCONE COMPOUNDS AND USES THEREOF” (priority 2015, published 2018) are described below.

One data set relates to MCF10CA1a. Briefly: SRB cell viability, isogenic breast cell lines. Format: cell-based. The note with it: MCF10CA1a (MCF10Ala [sic]), 72 hours; for Cell survival rate: 0.39 μM; for viability at 0.03125 µM: 31.25 nM. The procedure:
FIG. 9 illustrates that CTR-17, CTR-20, CTR-21 and CTR-32 preferentially kill the fully malignant […] breast cancer cells over the pre-malignant MCF10AT1 and the non-malignant MCF-10A breast cells. Cells were treated with (A) CTR-17 at doses of 0.10, 0.39, 1.56 or 6.25 μM; (B) CTR-20 at doses of 0.10, 0.39, 1.56 or 6.25 μM; (C) CTR-21 at doses of 7.81, 15.63, 31.25, 62.5, 125 or 250 nM; or (D) CTR-32 at doses of 7.81, 15.63, 31.25, 62.5, 125 or 250 nM for 72 hours. Cell viability was determined using an SRB assay.
All of the cell lines used were purchased from ATCC and cultured in RPMI-1640 supplemented with 10% fetal bovine serum and antibiotics (100 units penicillin/100 μg/ml streptomycin), unless stated otherwise. 1845B5 and MCF-10A non-cancer breast cell lines were cultured in DME/F12 medium supplemented with 10% fetal bovine serum, antibiotics and growth factors. KB-3-1 is a human epidermal carcinoma cell line and KB-C-2 is its isogenic multidrug-resistant cell line with over-expressing ABCB1/P-gp. […] The human small cell lung carcinoma H69 cell line and its multidrug-resistant MRP1-overexpressing isogenic H69AR cell line were purchased from ATCC. The H69AR cell line was established in the presence of increasing concentrations of Adriamycin (doxorubicin). H69 cells grow as large multi-cell aggregates, making it difficult to accurately count cell numbers. Therefore, the cytotoxicity results obtained from H69AR cells were compared to SW1271, a small cell lung carcinoma cell line without a multidrug-resistant phenotype. The IL-6 dependent bortezomib-resistant ANBL6-BR cell line was further supplemented with 1 ng/ml of IL-6. The MCF10AT1 and MCF10CA1a cell lines are isogenic to the MCF10A cell line, and obtained from Dr. Valerie Weaver at the Center for Bioengineering and Tissue Regeneration, UCSF, CA, USA. MCF10AT1 is a premalignant cell line generated by transforming MCF10A with c-Ha-Ras; and MCF10CA1a was isolated by selecting malignant cells after MCF10AT1 cells were engrafted into mice (Liu & Lin 2004; Marella et al. 2009). The MCF10AT1 and MCF10CA1a cells were cultured in DMEM supplemented with 10% FBS (volume/volume). MDA-MB231TaxR cell line was generated in house by culturing MDA-MB231 cells in gradually increasing doses of paclitaxel over one-year period, and finally maintained at 100 nM paclitaxel. The drug-resistant cells were cultured in the absence of drug for at least one passage before carrying out experiments. All cells were maintained in a humidified incubator at 37° C. (5% CO2/95% air). Cell line authentication was performed using short tandem repeat (STR) profiling.
For (anti)proliferation assays, 4,000-5,000 cells/well of the 96-well clustered dish were incubated for 16 hours, as described previously (Hu et al., 2008; Skehan et al., 1990). After 16 hours, culture medium was replaced with fresh medium containing different dilutions of test compounds dissolved in DMSO. Some wells were treated with 100 μl of 10% trichloroacetic acid (TCA) as a negative control and sham (medium with dimethyl sulfoxide; DMSO) treated cells were used as a positive control. After 72 hours post-incubation, medium was removed and cells were fixed with 10% TCA at 4° C. for 1 hour. TCA was removed and cells were washed with cold tap water, and plate was air-dried, followed by addition of 50 μl of 0.4% SRB staining solution to each well. After 30 minutes incubation, SRB staining solution was removed. Cells were washed with 1% acetic acid solution, and then washed with tap water to remove unbound staining solution, followed by air-drying. 200 μl of 10 mM (pH10.5) trizma base buffer was added to each well to solubilise macromolecules. SRB stained macromolecules were determined at a 540 nm wavelength using an automated plate reader (Synergy H4 Hybrid Multi-Mode Microplate Reader, BioTek, Winooski, Vt.). Cell growth (inhibition) was calculated by the following formula: […]

A short description of data set [1]: Toxicology analysis of spleen (H&E). Format: in vivo, mice. Details: key to Red Pulp (RP): Myeloid elements: ↑↑: Double and single upward arrows indicate highly and moderately increased, respectively; ↑: Double and single upward arrows indicate highly and moderately increased, respectively. As to conditions: 30 days, Paclitaxel 10 mg/kg, CTR 30 mg/kg, or Tax (5) + CTR (15). The procedure:
Animals were monitored for food and water consumption every day, and their body weights and tumor volumes were measured twice per week. Tumor volumes were measured with a digital caliper and were determined by using the following formula: ½ length×width^2. Blood samples were collected via cardiac puncture and processed further for ALT and AST measurements. The animals were then immediately euthanized by carbon dioxide. Tumors and vital organs (spleen, kidney, liver and lung) were collected and fixed in 10% buffered formalin at 4° C. overnight before being processed for paraffin embedding. The paraffin-embedded blocks were then cut into 4-5 μm thick sections. Each section of tumors and organs was stained with hematoxylin and eosin (H&E).
Changes in body weight, hemoglobin (Hb) and the amount and ratio of alanine transaminase (ALT)/aspartate transaminase (AST) were used to measure toxic effects. In addition, vital organs (liver, spleen, kidney and lung) were analyzed by […] after they were harvested, fixed, processed, paraffin-embedded, sectioned, and stained as described above.
ATH490 athymic mice were sham-treated (vehicle only) or treated with compounds of the indicated doses for 30 days, followed by toxicity analysis after spleen tissues were H & E stained. The numbers in the brackets are mg per kg of body weight. Arrows indicate the presence of macrophages in the red pulp (RP). Images were taken using a Zeiss EPI-fluorescent microscope (10× objective). Drug administration was carried out as described in Table 11.

Each structure is given as a SMILES string.

Take `COc1ccccc1C(=O)/C=C/c1cc2ccccc2[nH]c1=O` [CTR-17, (E)-3-(3-(2-Methoxyphenyl)-3-oxoprop-1-enyl)quinolin-2(1H)-one]: the Cell survival rate in the data set with MCF10CA1a worked out at 39%. Further, in data set [1], the Capsule result was “Normal”, the “Red Pulp (RP): Myeloid elements” value is listed as “elements: ↑” and the “White pulp (WP)” value is reported as “Less but bigger”.

In the case of `CC(=O)O[C@H]1C(=O)[C@@]2(C)[C@H]([C@H](OC(=O)c3ccccc3)[C@]3(O)C[C@H](OC(=O)[C@H](O)[C@@H](NC(=O)c4ccccc4)c4ccccc4)C(C)=C1C3(C)C)[C@]1(OC(C)=O)CO[C@@H]1C[C@@H]2O` [Paclitaxel, reference compound], in data set [1], the Capsule result is listed as “Normal”, the “Red Pulp (RP): Myeloid elements” value is “elements: ↑↑^a” and the “White pulp (WP)” value is reported as “Less but bigger”.

Regarding `COc1ccc2[nH]c(=O)c(/C=C/C(=O)c3ccccc3OC)cc2c1` [CTR-20, (E)-6-Methoxy-3-(3-(2-methoxyphenyl)-3-oxoprop-1-enyl) quinolin-2(1H)-one], the Cell survival rate in the data set on MCF10CA1a was found to be 10%. In data set [1], the Capsule result is listed as “Normal”, the “Red Pulp (RP): Myeloid elements” value is reported as “elements: ↑” and the “White pulp (WP)” value is recorded as “Less but bigger”.

Broadly, the viability is a per cent measure of how many cells are alive, often set against a control. `COc1ccccc1C(=O)/C=C/c1cc2cccc(OC)c2[nH]c1=O` [CTR-21, (E)-8-methoxy-3-(3-(2-methoxyphenyl)-3-oxoprop-1-enyl) quinolin-2(1H)-one]: the viability at 0.03125 µM with MCF10CA1a turned out to be 10%.

Consider `CCOc1ccccc1C(=O)/C=C/c1cc2ccccc2[nH]c1=O` [CTR-32, (E)-3-(3-(2-ethoxyphenyl)-3-oxoprop-1-enyl)quinolin-2(1H)-one], for which the viability at 0.03125 µM with MCF10CA1a was 40%.
